Measured values reported in PubChem BioAssay AID2060622 (Molecular Pharmacology Branch, DTP, NCI, 2025).

System: 242566-281-R-J2-PDC complex spheroid viability
Assay: Anticancer human tumor 242566-281-R-J2-PDC patient-derived pancreatic carcinoma cell line growth inhibition [CLK]
Conditions: for IC50: curve of first compound; for viability, T/C: stronger effect = lower value; active = viability on the fitted dose curve at most 10% of control; inactive = the rest
Description: A high-throughput screen of multi-cell type tumor spheroids was designed to identify active combinations of […] and targeted small molecules. Complex spheroids include a stromal component modeled by human endothelial cells (HUVEC) and fibroblasts modeled by human mesenchymal stem cells (MSCs). The concentration ranges selected for each drug and investigational agent were based upon clinically achievable concentrations if the clinical Cmax of the agent was known.
Compounds. The drugs and investigational agents: cirtuvivint (SM08502; NSC835563), CC-671 (NSC850746), vemurafenib (NSC761431), tapotoclax (NSC804041), sotorasib (NSC818433), adagrasib (NSC831453), MRTX-1133 (NSC836407), BAY2416964 (NSC825713), copanlisib (NSC816437), inavolisib (NSC800729), abemaciclib (NSC768073), osimertinib (NSC779217), entinostat (NSC756642), eltanexor (KPT-8602, NSC794443), venetoclax (NSC766270), ceralasertib (NSC777638), bortezomib (NSC756655), olaparib (NSC753686), talazoparib (NSC767125), alisertib (NSC759677), peposertib (NSC802822), gemcitabine (NSC613327), 5-fluorouracil (NSC19893), SN-38 (NSC673596), oxaliplatin (NSC266046), paclitaxel (NSC125973), and doxorubicin (NSC123127), were obtained from the National Cancer Institute (NCI) Developmental Therapeutics Program Chemical Repository. The FDA-approved anticancer drug set is available from the Developmental Therapeutics Program at https://dtp.cancer.gov/organization/dscb/obtaining/available plates.htm. […] The stock solutions were prepared in dimethyl sulfoxide (DMSO, Sigma-Aldrich, St. Louis, MO, cat. D2650), except for the platinum complexes which were prepared in saline (Quality Biological, Gaithersburg, MD, cat. 114-055-101), at 800-fold the tested concentration and stored at -70 degrees C prior to their use. All drugs and investigational agents were tested over a range starting from a high concentration at or near the clinical Cmax and decreasing in half-log increments. If the clinical Cmax for an agent had not been determined, the highest concentration tested was 10 microM.
Cell Culture. All cells were maintained in an incubator at 37 degrees C and 5% CO2 with 95% humidity. The PDC lines were cultured according to standard operating procedures established by the NCI PDMR. Briefly, all PDCs were thawed and cultured in Matrigel-coated flasks prepared with a working solution of 1X Ham's F-12 nutrient mix, without supplementation (Invitrogen, Waltham, MA, cat. 11765054), 100 U/mL penicillin-streptomycin (Invitrogen, cat. 15140122), and 2.5% Matrigel (Corning Inc., Corning, NY, cat. 354248) for the first three passages. The 947758-054-R-J2-PDC line was cultured in 6B/Colon 1A media, which includes advanced DMEM/F-12 (Thermo Fisher Scientific, cat. 12634028), 10 mM HEPES (Thermo Fisher Scientific, cat. 15630080), 1X GlutaMAX supplement (Thermo Fisher Scientific, cat. 35050061), 0.1 mg/mL primocin (InvivoGen, cat. ant-pm-2), 10% defined fetal bovine serum, heat inactivated (HyClone Laboratories Inc., cat. SH30070.03HI), 1.25 mM N-Acetyl-L-cysteine (Sigma-Aldrich, cat. A9165), 10 mM nicotinamide (Sigma-Aldrich, cat. N0636), 1X B-27 supplement (Thermo Fisher Scientific, cat. 17504044), 1X N-2 supplement (Thermo Fisher Scientific, cat. 17502048), and 10 microM Y-27632 dihydrochloride (Tocris Bioscience, cat. 1254). The 876862-298-R-J1-PDC was cultured in 6E media, which includes all 6B/Colon 1A media components plus 50% L-WRN conditioned media (ATCC, cat. CRL-3276), 50 ng/mL recombinant human EGF recombinant protein (hEGF; Thermo Fisher Scientific, cat. PHG0311), 10 ng/mL recombinant human fibroblast growth factor 10 (hGFG-10; PeproTech, cat. 100-26), 1 ng/mL recombinant human fibroblast growth factor 2 (hFGF-2; PeproTech, cat. 100-18B), and 1 µM prostaglandin E2 (PGE2; Tocris, cat. 2296). The 227483-062-R1-J1-PDC line was cultured in Panc media, containing all 6E components except hFGF-2, with the addition of 500 nM SB-431542 (Selleckchem, cat. S1067) and 10 nM gastrin (Tocris, cat. 3006). […]

[1] = second compound 0.0316 µM, first compound 0.0316 µM
[2] = second compound 0.0316 µM, first compound 0.1 µM
[3] = second compound 0.0316 µM, first compound 0.316 µM
[4] = second compound 0.0316 µM, first compound 1 µM
[5] = second compound 0.0316 µM, first compound 3.16 µM
[6] = second compound 0.0316 µM, first compound 10 µM
[7] = second compound 0.1 µM, first compound 0.0316 µM
[8] = second compound 0.1 µM, first compound 0.1 µM
[9] = second compound 0.1 µM, first compound 0.316 µM
[10] = second compound 0.1 µM, first compound 1 µM
[11] = second compound 0.1 µM, first compound 3.16 µM
[12] = second compound 0.1 µM, first compound 10 µM
[13] = second compound 0.316 µM, first compound 0.0316 µM
[14] = second compound 0.316 µM, first compound 0.1 µM
[15] = second compound 0.316 µM, first compound 0.316 µM
[16] = second compound 0.316 µM, first compound 1 µM
[17] = second compound 0.316 µM, first compound 3.16 µM
[18] = second compound 0.316 µM, first compound 10 µM
[19] = second compound 1 µM, first compound 0.0316 µM
[20] = second compound 1 µM, first compound 0.1 µM
[21] = second compound 1 µM, first compound 0.316 µM
[22] = second compound 1 µM, first compound 1 µM
[23] = second compound 1 µM, first compound 3.16 µM
[24] = second compound 1 µM, first compound 10 µM
[25] = second compound 3.16 µM, first compound 0.0316 µM
[26] = second compound 3.16 µM, first compound 0.1 µM
[27] = second compound 3.16 µM, first compound 0.316 µM
[28] = second compound 3.16 µM, first compound 1 µM
[29] = second compound 3.16 µM, first compound 3.16 µM
[30] = second compound 3.16 µM, first compound 10 µM
[31] = second compound 10 µM, first compound 0.0316 µM
[32] = second compound 10 µM, first compound 0.1 µM
[33] = second compound 10 µM, first compound 0.316 µM
[34] = second compound 10 µM, first compound 1 µM
[35] = second compound 10 µM, first compound 3.16 µM
[36] = second compound 10 µM, first compound 10 µM
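Note: spheroids exposed to compounds for 7 days before readout.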
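Throughout, for viability, T/C: 100% = DMSO vehicle control wells.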

CCCS(=O)(=O)Nc1ccc(F)c(C(=O)c2c[nH]c3ncc(-c4ccc(Cl)cc4)cc23)c1F + CN1CCN(c2cc(C(=O)Nc3cc4cc(-c5cnn(C)c5)ccc4cn3)ccn2)CC1
inactive: viability, T/C [1] 98.8% | viability, T/C [2] 93.1% | viability, T/C [3] 96.3% | viability, T/C [4] 126% | viability, T/C [5] 97.3% | viability, T/C [7] 84.8% | viability, T/C [8] 102% | viability, T/C [9] 87.5% | viability, T/C [10] 109% | viability, T/C [11] 89.6% | viability, T/C [13] 42.3% | viability, T/C [14] 44.7% | viability, T/C [15] 45.2% | viability, T/C [16] 40.5% | viability, T/C [17] 33.1%
5.8 µM: IC50 (second compound 0.0316 µM)
5.58 µM: IC50 (second compound 0.1 µM)
< 0.0316 µM: IC50 (second compound 0.316 µM) | IC50 (second compound 1 µM) | IC50 (second compound 3.16 µM) | IC50 (second compound 10 µM)
active: viability, T/C [6] 7.56% | viability, T/C [12] 8.92% | viability, T/C [18] 8.52% | viability, T/C [19] 4.91% | viability, T/C [20] 5.46% | viability, T/C [21] 4.96% | viability, T/C [22] 5.32% | viability, T/C [23] 5.68% | viability, T/C [24] 5.62% | viability, T/C [25] 7.02% | viability, T/C [26] 8.45% | viability, T/C [27] 6.23% | viability, T/C [28] 8.2% | viability, T/C [29] 10.1% | viability, T/C [30] 9.62% | viability, T/C [31] 2.81% | viability, T/C [32] 2.91% | viability, T/C [33] 2.02% | viability, T/C [34] 2.43% | viability, T/C [35] 2.11% | viability, T/C [36] 1.29%

COC1C=CCC(C)C(C)S(=O)(=O)NC(=O)c2ccc3c(c2)N(CC2CCC21)CC1(CCCc2cc(Cl)ccc21)CO3 (centres undefined) + CN1CCN(c2cc(C(=O)Nc3cc4cc(-c5cnn(C)c5)ccc4cn3)ccn2)CC1
< 0.0316 µM: IC50 (second compound 0.316 µM) | IC50 (second compound 1 µM) | IC50 (second compound 3.16 µM) | IC50 (second compound 10 µM)
active: viability, T/C [18] 3.62% | viability, T/C [19] 4.66% | viability, T/C [20] 4.57% | viability, T/C [21] 3.7% | viability, T/C [22] 4.79% | viability, T/C [23] 3.13% | viability, T/C [24] 2.17% | viability, T/C [25] 7.61% | viability, T/C [26] 7.11% | viability, T/C [27] 6.63% | viability, T/C [28] 7.11% | viability, T/C [29] 6.71% | viability, T/C [30] 4.96% | viability, T/C [31] 1.98% | viability, T/C [32] 1.96% | viability, T/C [33] 1.79% | viability, T/C [34] 1.93% | viability, T/C [35] 1.82% | viability, T/C [36] 0.48%
3.44 µM: IC50 (second compound 0.1 µM)
5.3 µM: IC50 (second compound 0.0316 µM)
inactive: viability, T/C [1] 93% | viability, T/C [2] 119% | viability, T/C [3] 101% | viability, T/C [4] 81.6% | viability, T/C [5] 78.9% | viability, T/C [6] 20.3% | viability, T/C [7] 93.2% | viability, T/C [8] 94.1% | viability, T/C [9] 87.8% | viability, T/C [10] 66.6% | viability, T/C [11] 56.6% | viability, T/C [12] 16.5% | viability, T/C [13] 37.5% | viability, T/C [14] 34.1% | viability, T/C [15] 28.7% | viability, T/C [16] 16.1% | viability, T/C [17] 12.8%
